Laboratory results taken from PMC5218480 (PLoS ONE, 2017).

Tested on: MV-4-11 cells
Assay: Gene expression microarray analysis (Affymetrix PrimeView) and GSEA
Assay type: cell-based, human
Design: RFU PODN (11730768_x_at) / Fold change /veh PODN (11730768_x_at) / RFU LINC00158 (11744669_a_at) / Fold change /veh LINC00158 (11744669_a_at) / RFU DUSP10 (11751237_a_at) / Fold change /veh DUSP10 (11751237_a_at) / RFU ID3 (11757404_x_at) / Fold change /veh ID3 (11757404_x_at) / RFU PLEKHG5 (11737974_s_at) / Fold change /veh PLEKHG5 (11737974_s_at) / RFU LRRC4B (11730491_at) / Fold change /veh LRRC4B (11730491_at) / RFU GIMAP4 (11747438_a_at) / Fold change /veh GIMAP4 (11747438_a_at) / RFU KRT8 (11758183_x_at) / Fold change /veh KRT8 (11758183_x_at) / RFU CNN1 (11734310_a_at) / Fold change /veh CNN1 (11734310_a_at) / RFU VPS37D (11726825_at) / Fold change /veh VPS37D (11726825_at) / RFU C10orf10 (11716522_x_at) / Fold change /veh C10orf10 (11716522_x_at) / RFU KIR2DL2 /// KIR2DL4 /// KIR2DL5A /// KIR2DL5B /// KIR2DS1 /// KIR2DS2 /// KIR2DS3 /// KIR2DS4 /// KIR3DL3 /// KIR3DL3 /// KIR3DS1 (11738374_at) / Fold change /veh KIR2DL2 /// KIR2DL4 /// KIR2DL5A /// KIR2DL5B /// KIR2DS1 /// KIR2DS2 /// KIR2DS3 /// KIR2DS4 /// KIR3DL3 /// KIR3DL3 /// KIR3DS1 (11738374_at) / RFU C1QL1 (11718748_at) / Fold change /veh C1QL1 (11718748_at) / RFU TMPRSS4 (11747572_a_at) / Fold change /veh TMPRSS4 (11747572_a_at) / RFU HAMP (11756126_x_at) / Fold change /veh HAMP (11756126_x_at) / RFU RNFT2 (11725882_a_at) / Fold change /veh RNFT2 (11725882_a_at) / RFU NR4A2 (11747474_a_at) / Fold change /veh NR4A2 (11747474_a_at) / RFU ABCC12 (11746883_a_at) / Fold change /veh ABCC12 (11746883_a_at) / RFU TMEM136 (11760407_x_at) / Fold change /veh TMEM136 (11760407_x_at) / RFU CLDN22 /// WWC2 (11732394_at) / Fold change /veh CLDN22 /// WWC2 (11732394_at) / RFU HLA-DPB1 (11760878_x_at) / Fold change /veh HLA-DPB1 (11760878_x_at) / RFU SPINT1 (11716480_a_at) / Fold change /veh SPINT1 (11716480_a_at) / RFU GAP43 (11754022_s_at) / Fold change /veh GAP43 (11754022_s_at) / RFU A4GNT (11735810_at) / Fold change /veh A4GNT (11735810_at) / RFU PRB3 (11715151_x_at) / Fold change /veh PRB3 (11715151_x_at) / RFU TUBB4B (11761932_at) / Fold change /veh TUBB4B (11761932_at) / RFU CAPN14 (11732068_a_at) / Fold change /veh CAPN14 (11732068_a_at) / RFU TMCC2 (11721928_a_at) / Fold change /veh TMCC2 (11721928_a_at) / RFU IRGQ (11745062_a_at) / Fold change /veh IRGQ (11745062_a_at) / RFU FAM174B (11720279_a_at) / Fold change /veh FAM174B (11720279_a_at) / RFU TMPRSS4 (11748680_a_at) / Fold change /veh TMPRSS4 (11748680_a_at) / RFU FAM212B (11763350_a_at) / Fold change /veh FAM212B (11763350_a_at) / RFU PLEKHG5 (11743358_a_at) / Fold change /veh PLEKHG5 (11743358_a_at) / RFU ZSCAN30 (11745921_a_at) / Fold change /veh ZSCAN30 (11745921_a_at) / RFU CMKLR1 (11741424_a_at) / Fold change /veh CMKLR1 (11741424_a_at) / RFU LOC101060620 /// MAPK8IP1 (11723275_at) / Fold change /veh LOC101060620 /// MAPK8IP1 (11723275_at) / RFU SPTSSB (11747773_x_at) / Fold change /veh SPTSSB (11747773_x_at) / RFU PRSS12 (11739890_at) / Fold change /veh PRSS12 (11739890_at) / RFU BIN1 (11741810_x_at) / Fold change /veh BIN1 (11741810_x_at) / RFU WNT11 (11732464_a_at) / Fold change /veh WNT11 (11732464_a_at) / RFU C10orf10 (11716521_a_at) / Fold change /veh C10orf10 (11716521_a_at) / RFU C5orf56 (11738089_at) / Fold change /veh C5orf56 (11738089_at) / RFU CYB561 (11721691_x_at) / Fold change /veh CYB561 (11721691_x_at) / RFU ANKRD19P (11752326_a_at) / Fold change /veh ANKRD19P (11752326_a_at) / RFU OR2T12 /// OR2T33 /// OR2T8 (11738714_s_at) / Fold change /veh OR2T12 /// OR2T33 /// OR2T8 (11738714_s_at) / RFU VCAN (11748164_a_at) / Fold change /veh VCAN (11748164_a_at) / RFU JSRP1 (11732532_at) / Fold change /veh JSRP1 (11732532_at) / RFU KRTAP10-11 (11738290_x_at) / Fold change /veh KRTAP10-11 (11738290_x_at) / RFU MYO3A (11730013_a_at) / Fold change /veh MYO3A (11730013_a_at) / RFU EBF3 (11725865_a_at) / Fold change /veh EBF3 (11725865_a_at) / RFU CAMK2N1 (11719241_x_at) / Fold change /veh CAMK2N1 (11719241_x_at) / RFU C5orf56 (11738088_a_at) / Fold change /veh C5orf56 (11738088_a_at) / RFU OLFML3 (11715873_a_at) / Fold change /veh OLFML3 (11715873_a_at) / RFU LOC100653217 /// NTM (11731650_a_at) / Fold change /veh LOC100653217 /// NTM (11731650_a_at) / RFU MAPK11 (11762145_a_at) / Fold change /veh MAPK11 (11762145_a_at) / RFU FIZ1 (11724087_x_at) / Fold change /veh FIZ1 (11724087_x_at) / RFU OASL (11726364_x_at) / Fold change /veh OASL (11726364_x_at) / RFU SOX15 (11748057_x_at) / Fold change /veh SOX15 (11748057_x_at) / RFU CD79A (11719716_a_at) / Fold change /veh CD79A (11719716_a_at) / RFU HIST1H1D (11736915_at) / Fold change /veh HIST1H1D (11736915_at) / RFU CASKIN2 (11723855_a_at) / Fold change /veh CASKIN2 (11723855_a_at) / RFU LOC730098 (11760151_x_at) / Fold change /veh LOC730098 (11760151_x_at) / RFU OR4N2 (11742367_at) / Fold change /veh OR4N2 (11742367_at) / RFU PRRT2 (11749266_a_at) / Fold change /veh PRRT2 (11749266_a_at) / RFU SNX32 (11753110_a_at) / Fold change /veh SNX32 (11753110_a_at) / RFU CDHR5 (11726645_a_at) / Fold change /veh CDHR5 (11726645_a_at) / RFU RCAN1 (11760418_a_at) / Fold change /veh RCAN1 (11760418_a_at) / RFU FAM167A (11723789_a_at) / Fold change /veh FAM167A (11723789_a_at) / RFU FAM26E (11764081_at) / Fold change /veh FAM26E (11764081_at) / RFU ISYNA1 (11749810_s_at) / Fold change /veh ISYNA1 (11749810_s_at) / RFU ACY1 (11761880_at) / Fold change /veh ACY1 (11761880_at) / RFU 11764098_at / Fold change /veh 11764098_at / RFU SAMD14 (11745864_x_at) / Fold change /veh SAMD14 (11745864_x_at) / RFU NPB (11741838_a_at) / Fold change /veh NPB (11741838_a_at) / RFU TMPRSS6 (11731388_a_at) / Fold change /veh TMPRSS6 (11731388_a_at) / RFU KRTAP10-2 (11738614_at) / Fold change /veh KRTAP10-2 (11738614_at) / RFU ARHGAP8 /// PRR5-ARHGAP8 (11727945_x_at) / Fold change /veh ARHGAP8 /// PRR5-ARHGAP8 (11727945_x_at) / RFU KRTAP5-7 /// NADSYN1 (11734609_at) / Fold change /veh KRTAP5-7 /// NADSYN1 (11734609_at) / RFU RASL12 (11751679_a_at) / Fold change /veh RASL12 (11751679_a_at) / RFU CDKN2B (11736163_a_at) / Fold change /veh CDKN2B (11736163_a_at) / RFU PRF1 (11729649_at) / Fold change /veh PRF1 (11729649_at) / RFU, ZNF638 /// ZNF638-IT1 / Fold change vs veh, ZNF638 /// ZNF638-IT1 / RFU, PANK3 / Fold change vs veh, PANK3 / RFU, SH3YL1 / Fold change vs veh, SH3YL1 / RFU, ZEB2 / Fold change vs veh, ZEB2 / RFU, NRIP1 / Fold change vs veh, NRIP1 / RFU, PTTG1IP / Fold change vs veh, PTTG1IP / RFU, CAPN2 / Fold change vs veh, CAPN2 / RFU, MED14 / Fold change vs veh, MED14 / RFU, SNORA58 / Fold change vs veh, SNORA58 / RFU, C1orf63 / Fold change vs veh, C1orf63 / RFU, LRRFIP1 / Fold change vs veh, LRRFIP1 / RFU, NDUFAF7 / Fold change vs veh, NDUFAF7 / RFU, SLC12A2 / Fold change vs veh, SLC12A2 / RFU, IBTK / Fold change vs veh, IBTK / RFU, ESF1 / Fold change vs veh, ESF1 / Fold change vs veh, TMEM50B / RFU, TAOK1 / Fold change vs veh, TAOK1 / RFU, ACBD3 / Fold change vs veh, ACBD3 / RFU, TMA16 / Fold change vs veh, TMA16 / RFU, RWDD3 / Fold change vs veh, RWDD3 / RFU, BCAT1 / Fold change vs veh, BCAT1 / RFU, EDEM3 / Fold change vs veh, EDEM3 / RFU, TMEM33 / Fold change vs veh, TMEM33 / RFU, WDR75 / Fold change vs veh, WDR75 / RFU, AHCTF1 / Fold change vs veh, AHCTF1 / RFU, TFRC / Fold change vs veh, TFRC / RFU, ZDHHC17 / Fold change vs veh, ZDHHC17 / RFU, NOM1 / Fold change vs veh, NOM1 / RFU, ARL8B / Fold change vs veh, ARL8B / RFU, ZBTB11 / Fold change vs veh, ZBTB11 / RFU, TAMM41 / Fold change vs veh, TAMM41 / RFU, KIAA1704 /// LOC100996395 / Fold change vs veh, KIAA1704 /// LOC100996395 / RFU, ING1 / Fold change vs veh, ING1 / RFU, TRMT61B / Fold change vs veh, TRMT61B / RFU, FUBP3 / Fold change vs veh, FUBP3 / RFU, TP53 / Fold change vs veh, TP53 / RFU, TNKS2 / Fold change vs veh, TNKS2 / RFU, ZFP14 / Fold change vs veh, ZFP14 / RFU, ACTR2 / Fold change vs veh, ACTR2 / RFU, PPP3R1 / Fold change vs veh, PPP3R1 / RFU, PIK3R1 / Fold change vs veh, PIK3R1 / RFU, HNRNPA1 / Fold change vs veh, HNRNPA1 / RFU, RNF170 / Fold change vs veh, RNF170 / RFU, ZNF28 / Fold change vs veh, ZNF28 / RFU, RNGTT / Fold change vs veh, RNGTT / RFU, OGT / Fold change vs veh, OGT / RFU, BRD1 / Fold change vs veh, BRD1 / RFU, MARS / Fold change vs veh, MARS / RFU, ZNF655 / Fold change vs veh, ZNF655 / RFU, FAHD1 / Fold change vs veh, FAHD1 / RFU, BDP1 / Fold change vs veh, BDP1 / RFU, LRRCC1 / Fold change vs veh, LRRCC1 / RFU, ARID1A / Fold change vs veh, ARID1A / RFU, ZNF146 / Fold change vs veh, ZNF146 / RFU, ZNF330 / Fold change vs veh, ZNF330 / RFU, GPN3 / Fold change vs veh, GPN3 / RFU, C9orf123 / Fold change vs veh, C9orf123 / RFU, N4BP2L2 / Fold change vs veh, N4BP2L2 / RFU, ARFIP1 / Fold change vs veh, ARFIP1 / RFU, FAM179B / Fold change vs veh, FAM179B / RFU, BCL10 / Fold change vs veh, BCL10 / RFU, UHRF1BP1L / Fold change vs veh, UHRF1BP1L / RFU, BET1 / Fold change vs veh, BET1 / RFU, CNOT2 / Fold change vs veh, CNOT2 / RFU, ZNF268 / Fold change vs veh, ZNF268 / Fold change vs veh, ZNF507 / RFU, DGCR2 / Fold change vs veh, DGCR2 / RFU, WDSUB1 / Fold change vs veh, WDSUB1 / Fold change vs veh, HSP90B1 /// MIR3652 / RFU, ADSS / Fold change vs veh, ADSS / RFU, GK / Fold change vs veh, GK / RFU, ZNF148 / Fold change vs veh, ZNF148 / RFU, TAF9 / Fold change vs veh, TAF9 / RFU, SLC1A5 / Fold change vs veh, SLC1A5 / RFU, SLMO2 / Fold change vs veh, SLMO2 / RFU, ABCC4 / Fold change vs veh, ABCC4 / RFU, LOC101060439 /// RAP1B / Fold change vs veh, LOC101060439 /// RAP1B / RFU, RFX7 / Fold change vs veh, RFX7 / RFU, GTPBP10 / Fold change vs veh, GTPBP10 / RFU, CNEP1R1 / Fold change vs veh, CNEP1R1 / RFU, BIVM-ERCC5 /// ERCC5 / Fold change vs veh, BIVM-ERCC5 /// ERCC5 / RFU, ILF3 / Fold change vs veh, ILF3 / RFU 11762660_at / Fold change /veh 11762660_at / RFU VCAN (11757783_s_at) / Fold change /veh VCAN (11757783_s_at) / RFU DDX43 (11728927_at) / Fold change /veh DDX43 (11728927_at) / RFU KRT8 (11758188_x_at) / Fold change /veh KRT8 (11758188_x_at) / RFU NKD1 (11759106_at) / Fold change /veh NKD1 (11759106_at) / RFU SRD5A1 (11742802_a_at) / Fold change /veh SRD5A1 (11742802_a_at) / RFU TPSAB1 /// TPSB2 (11721975_s_at) / Fold change /veh TPSAB1 /// TPSB2 (11721975_s_at) / RFU GSTM3 (11746129_a_at) / Fold change /veh GSTM3 (11746129_a_at) / RFU IL23R (11737362_x_at) / Fold change /veh IL23R (11737362_x_at) / RFU TMEM51 (11727254_a_at) / Fold change /veh TMEM51 (11727254_a_at) / RFU PIWIL2 (11732686_x_at) / Fold change /veh PIWIL2 (11732686_x_at) / RFU ORM1 (11744905_x_at) / Fold change /veh ORM1 (11744905_x_at) / RFU CCDC152 (11743942_at) / Fold change /veh CCDC152 (11743942_at) / RFU ECM1 (11717891_a_at) / Fold change /veh ECM1 (11717891_a_at) / RFU IL23R (11748794_a_at) / Fold change /veh IL23R (11748794_a_at) / RFU TNFAIP8L3 (11732012_x_at) / Fold change /veh TNFAIP8L3 (11732012_x_at) / RFU MBOAT4 (11741988_at) / Fold change /veh MBOAT4 (11741988_at) / RFU 11764193_at / Fold change /veh 11764193_at / RFU TMEM53 (11763286_at) / Fold change /veh TMEM53 (11763286_at) / RFU MAGEB2 (11727129_at) / Fold change /veh MAGEB2 (11727129_at) / RFU TMEM200A (11744735_a_at) / Fold change /veh TMEM200A (11744735_a_at) / RFU CCDC152 (11751479_a_at) / Fold change /veh CCDC152 (11751479_a_at) / RFU FAM211A (11726209_a_at) / Fold change /veh FAM211A (11726209_a_at) / RFU RGS16 (11746705_a_at) / Fold change /veh RGS16 (11746705_a_at) / RFU VCAN (11755009_s_at) / Fold change /veh VCAN (11755009_s_at) / RFU RHOB (11743442_s_at) / Fold change /veh RHOB (11743442_s_at) / RFU RGS16 (11720943_a_at) / Fold change /veh RGS16 (11720943_a_at) / RFU RGS16 (11720944_at) / Fold change /veh RGS16 (11720944_at) / RFU, VPS4B / Fold change vs veh, VPS4B / RFU, CREB1 / Fold change vs veh, CREB1 / RFU, DNAJC13 / Fold change vs veh, DNAJC13 / RFU, GNAQ / Fold change vs veh, GNAQ / RFU, CDK5R1 / Fold change vs veh, CDK5R1 / RFU, ZRANB3 / Fold change vs veh, ZRANB3 / RFU, CUL4A / Fold change vs veh, CUL4A / RFU, CCNY / Fold change vs veh, CCNY / RFU, UFL1 / Fold change vs veh, UFL1 / RFU, COG3 / Fold change vs veh, COG3 / RFU, DIAPH2 / Fold change vs veh, DIAPH2 / RFU, SKA2 / Fold change vs veh, SKA2 / RFU, AFF3 / Fold change vs veh, AFF3 / RFU, LMF1 / Fold change vs veh, LMF1 / RFU, IPO11 / Fold change vs veh, IPO11 / RFU, DFFB / Fold change vs veh, DFFB / RFU, FOXP1 / Fold change vs veh, FOXP1 / RFU, CARD8 / Fold change vs veh, CARD8 / RFU, STRN3 / Fold change vs veh, STRN3 / RFU, ADK / Fold change vs veh, ADK / RFU, RASSF2 / Fold change vs veh, RASSF2 / RFU, WIPF1 / Fold change vs veh, WIPF1 / RFU, LARP1B / Fold change vs veh, LARP1B / RFU, RASA1 / Fold change vs veh, RASA1 / RFU, RB1 / Fold change vs veh, RB1 / RFU, PPFIA1 / Fold change vs veh, PPFIA1 / RFU, MAT2A / Fold change vs veh, MAT2A / RFU, CCT5 / Fold change vs veh, CCT5 / RFU, WDR92 / Fold change vs veh, WDR92 / RFU, CUX1 / Fold change vs veh, CUX1 / RFU, TTC7A / Fold change vs veh, TTC7A / RFU, TMEM135 / Fold change vs veh, TMEM135 / RFU, DEPTOR / Fold change vs veh, DEPTOR / RFU, CPM / Fold change vs veh, CPM / RFU, DNAJB6 / Fold change vs veh, DNAJB6 / RFU, CACNA2D3 / Fold change vs veh, CACNA2D3 / RFU, DTX4 / Fold change vs veh, DTX4 / RFU, TFCP2 / Fold change vs veh, TFCP2 / RFU, GMCL1 /// GMCL1P1 / Fold change vs veh, GMCL1 /// GMCL1P1 / RFU, AEBP2 / Fold change vs veh, AEBP2 / RFU, SNHG1 /// SNORD22 /// SNORD25 /// SNORD26 /// SNORD27 /// SNORD28 /// SNORD29 /// SNORD31 / Fold change vs veh, SNHG1 /// SNORD22 /// SNORD25 /// SNORD26 /// SNORD27 /// SNORD28 /// SNORD29 /// SNORD31 / Fold change (Aza/veh), C12orf56 (ProbeSet 11735607_a_at) / Fold change (ACY-1035/veh), C12orf56 (ProbeSet 11735607_a_at) / Fold change (Aza/veh), FGFR1OP (ProbeSet 11751329_s_at) / Fold change (ACY-1035/veh), FGFR1OP (ProbeSet 11751329_s_at) / Fold change (Aza/veh), VPS36 (ProbeSet 11739960_a_at) / Fold change (ACY-1035/veh), VPS36 (ProbeSet 11739960_a_at) / RFU SYPL1 (11715823_x_at) / Fold change /veh SYPL1 (11715823_x_at) / RFU IGFBP7 (11715501_s_at) / Fold change /veh IGFBP7 (11715501_s_at) / RFU REEP3 (11722064_at) / Fold change /veh REEP3 (11722064_at) / RFU IGLL1 (11728026_x_at) / Fold change /veh IGLL1 (11728026_x_at): dose or concentration left out as unconfirmed
Details: MV-4-11 cells, 48 hours

Nc1ncn([C@@H]2O[C@H](CO)[C@@H](O)[C@H]2O)c(=O)n1 [azacitidine]
Fold change /veh TMCC2 (11721928_a_at): 0.97
